Measured values taken from US7087575B2, “Treating the effect of nicotine” (Mayo Foundation for Medical Education and Research, priority 2002, dated 2006).

Legend:
Sprague Dawley rats = assay: Nicotine-induced locomotor activity, daily treatment for 15 days; assay type: in vivo, rat
Protocol: (§1) Animals and treatment protocol: Male Sprague-Dawley rats weighing 200–250 g were housed in a temperature-controlled room with free access to food and water under artificial 12 hour light/dark cycle. All tests were conducted during the light cycle. The animals received an intraperitoneal (i.p.) injection of either NT69L (1 mg/kg) or an equivalent volume (100 μl) of saline. Thirty minutes after the first injection, the rats received subcutaneous (s.c.) injections of saline or nicotine (0.35 mg/kg). These injections were repeated once a day for 15 days. On days 1 and 15, rats were placed in a Plexiglass Opto-Varimax Minor motility chamber (Columbus Instruments, Columbus, Ohio) and allowed to acclimate for one hour. Baseline activity was recorded for 30 minutes for each rat. The rats then were injected with either saline or NT69L and replaced in the chamber. After 30 minutes, each rat was injected with either saline or nicotine and returned to the chamber. Activity was recorded for 60 minutes. After testing for locomotor activity on day 15, animals were sacrificed. Brain sections were dissected on ice and maintained on dry ice until they were frozen at −80° C., at which temperature they were stored until being assayed. [^3H] cytisine binding: Nicotinic receptor binding sites in membrane homogenates of frozen tissue were measured using [^3H] cytisine according to the method of Pabreza et al. [(1991) Mol. Pharmacol. 39:9–12]. Frozen tissue was resuspended in 50 mM Tris-HCl buffer (pH 7.4), homogenized with a Brinkmann Polytron (setting 6), and washed twice in fresh Tris buffer by centrifugation at 35000×g. The resulting pellets were resuspended in buffer. Aliquots of homogenates were added to tubes containing [^3H] cytisine in the presence or absence of 100 μM nicotine and incubated in a final volume of 250 μl for 75 minutes at 4° C. The binding reactions were terminated by filtration through GF/B filter paper that was mounted on a Brandel cell harvester. Filters were presoaked in 0.5% polyethylenimine to reduce binding of radioligand to the filter. The filters were washed 3 times with cold 0.9% NaCl and counted in a scintillation counter. The data were analyzed using the PC version of the ligand software program. Specific binding was defined as the difference between binding in the presence and absence of 100 μM nicotine.
Sprague Dawley rats were divided into seven groups and injected daily for 14 days with the treatment listed outside the parentheses under each pair of columns in FIG. 1. On day 15, the rats were injected with the treatment listed inside the parentheses under each pair of columns. Locomotor activity was recorded on days 1 and 15. Rats were placed in a motility chamber for one hour for acclimation. A 30 minute baseline was recorded for each rat. The rats were injected with either saline or NT69L and placed in the chamber for 30 minutes. Each rat was then removed from the chamber, injected with either nicotine or saline, and returned to the chamber. Activity was recorded for 60 minutes, and is shown in counts per 10 minute interval.

[1] = test system: Nicotinic receptor binding sites; assay: [3H] cytisine binding in brain membrane homogenates after in vivo treatment; parameters: species or system rat; settings: for increase in cytisine binding in the VTA: vs saline control, only chronic injection of NT69L significant (P<0.05)
Protocol: as §1
Sprague Dawley rats were maintained and treated as described above. Animals were sacrificed on day 15 after being tested for locomotor activity. PFC and VTA sections were harvested on ice and frozen at −80° C until being assayed for cytisine binding as described in Example 1.

[2] = test system: dopamine and its metabolites; assay: Dopamine and metabolites in striatum and PFC by HPLC-EC after in vivo treatment; parameters: species or system rat
Protocol: Striatal dopamine: Brain dopamine levels were analyzed using high performance liquid chromatography with electrochemical detection (HPLC-EC, ESA, Inc., Chemsford, Mass.), according to previously described procedures (Kilts et al. (1981) J. Chromatogr. 225:347–357; and Krstulovic (1982) J. Chromatogr. 229:1–34). Rats were sacrificed by decapitation, brains were removed, and the striatal tissue was weighed and homogenized in 10 volumes of ice-cold 0.1 N perchloric acid containing 10 mM EDTA. Tissue homogenates were centrifuged at 26,000×g for 10 minutes at 4° C. A 20 μl aliquot of the diluted supernatant was injected onto an HPLC system with an MD-150/RP-C18 column (ESA). The mobile phase contained 10% acetonitrile with 75 mM sodium dihydrogen phosphate, 1.7 mM 1-octane sulfonic acid sodium salt, 0.01% triethylamine, and 25 μM EDTA, pH 3.0. The flow rate was maintained at 0.5 ml/minute. The detector potentials were set at: 350 mV; E1:−175 mV and E2:250 mV. The concentration of dopamine in each sample was quantified by comparison of area under curve (AUC) between samples and external standards run on the same day.
Sprague Dawley rats were treated as described above. Animals were sacrificed on day 15 after being tested for locomotor activity. Striatal and PFC tissues were harvested on ice and frozen at −80° C. until being assayed for dopamine metabolism as detailed in Example 1.

norepinephrine = assay: Norepinephrine levels in brain tissue after in vivo treatment; parameters: species or system rat
Protocol: Sprague Dawley rats were treated as described above. Animals were sacrificed on day 15 after being tested for locomotor activity. PFC sections were harvested on ice and frozen at −80° C. until being assayed for norepinephrine levels.

rats = assay: Nicotine sensitization, weekly treatment for six weeks, locomotor activity; assay type: in vivo, rat
Protocol: as §1
For a longer term study of nicotine sensitization, rats were divided into seven groups that were treated once a week for six weeks with saline or NT69L followed by a challenge with saline or 0.35 mg/kg nicotine. These experiments allowed examination of both the initiation and expression phases of sensitization. Group 1 received saline/saline each week. Group 2 received saline/saline for the first five weekly treatments, and saline/nicotine in the sixth week. Group 3 received saline/nicotine each week. Group 4 received NT69L/saline each week. Group 5 received NT69L/nicotine each week. Group 6 received NT69L/nicotine for the first five weekly treatments, and saline/nicotine in the sixth week. Group 7 received saline/nicotine for the first five weekly treatments, and NT69L/nicotine in the sixth week. Locomotor activity was measured after each weekly treatment, as described in Example 1.

dopamine D2 receptor = assay: Dopamine D2 receptor binding assay ([3H] raclopride) in striatum after in vivo treatment; parameters: species or system rat
Protocol: Dopamine D2 receptor binding assay: Homogenized brain tissue was assayed for dopamine D2 receptor binding by the method of Bowden et al. [(1997) Brain Res. 752:227–233]. Briefly, brain tissue was homogenized in buffer (50 mM Tris-HCl, 5 mM KCl and 120 mM NaCl, pH 7.5) and centrifuged at 26,000×g for 10 minutes at 4° C. Pellets were resuspended in buffer to 1 mg/10 μl and immediately used for binding. Aliquots of […] tissue homogenates were added to 25 PI [^3H] raclopride and 25 μl buffer (for total binding) or 25 μl of […] sulipride (for nonspecific binding) in a total volume of 250 μl, and incubated at room temperature for 90 minutes. Membrane-bound radioactivity was recovered by filtration under vacuum through Whatman GF/B filters using a Brandel cell harvester. Filters were washed with ice-cold PBS and radioactivity was determined by liquid scintillation counting. Protein levels were quantified using the Micro BCA assay (Pierce, Rockford, Ill.).

Compound: CN1CCCC1c1cccnc1 (stereo not shown) [nicotine]
- increase in peak activity (sensitization) (Sprague Dawley rats; daily nicotine injections, day 1 vs. day 15): > 60%
- peak level of locomotor activity (Sprague Dawley rats; single injection of nicotine 0.35 mg/kg s.c. vs control group sal/sal(sal/sal), P<0.001): significantly increased
- increase of cytisine binding in prefrontal cortex ([1]; fifteen daily injections of nicotine vs saline control, P<0.05): 62%
- cytisine binding in the PFC ([1]; single nicotine injection on day 15 vs sal/sal(sal/sal)): tended to increase cytisine binding in the PFC, but not to a significant level
- increase in cytisine binding in the VTA [1]: 35%
- levels of dopamine and its metabolites as compared to saline control ([2]; PFC, fifteen daily injections of nicotine): 232%
- increase in levels of dopamine and its metabolites ([2]; PFC, single injection of nicotine, P<0.05): 400%
- increase in striatal dopamine levels ([2]; striatum, single injection of nicotine vs sal/sal(sal/sal), P<0.05): 192%
- increase of norepinephrine levels in the PFC (norepinephrine; acute and chronic treatment with nicotine vs saline control, P<0.05): 213–300%
- locomotor activity after nicotine challenge without NT69L (rats; nicotine 0.35 mg/kg in the sixth week only (group 2)): resulted in hyperactivity
- locomotor activity after nicotine challenge without NT69L (rats; nicotine challenge each week (group 3)): resulted in increased activity

Compound: N-methyl-Arg-Lys-Pro-L-neo-Trp-tert-Leu-Leu [NT69L]
- reduction of nicotine-induced hyperactivity (Sprague Dawley rats; acute injection of NT69L 1 mg/kg i.p. on day 1, 30 minutes prior to nicotine, P<0.001): 24%
- reduction of the magnitude of locomotor sensitization (Sprague Dawley rats; daily injection of NT69L): 24%
- locomotor activity 69/sal vs sal/sal groups (sedation) (Sprague Dawley rats; day 1, NT69L 1 mg/kg i.p. without nicotine): no significant difference
- activity compared with saline after fifteen days of treatment (Sprague Dawley rats; sal/nic(sal/nic) vs. 69/nic(69/nic), P<0.05): statistically significant reduction in activity
- sensitized nicotine-induced activity after NT69L (Sprague Dawley rats; single injection of NT69L 30 minutes prior to nicotine on the fifteenth day of nicotine administration, P<0.001): 10 % of control
- reduction of cytisine binding caused by acute nicotine injection ([1]; PFC, NT69L daily for 15 days, acute, but not chronic, nicotine): 62%
- reduction of the increase in cytisine binding caused by 15 daily injections of nicotine ([1]; PFC, acute injection of NT69L prior to nicotine on day fifteen): 65%
- increase in cytisine binding in the VTA [1]: 35%
- lowering of the nicotine-induced increase in dopamine ([2]; PFC, injection of NT69L for 15 days): 62%
- lowering of the nicotine-induced increase in dopamine ([2]; PFC, pretreating with NT69L before nicotine injection on day 15): 28%
- effect on dopamine levels in the striatum ([2]; pretreatment with NT69L): did not significantly affect
- dopamine (D2) receptor binding in striatum across nicotine and NT69L treatment groups (dopamine D2 receptor): No difference
- reduction in norepinephrine levels (norepinephrine; PFC, daily injections of NT69L, single injection of nicotine): 40%
- norepinephrine in the striatum between treatment groups (norepinephrine; striatum): No significant differences
- effect on nicotine-induced hyperactivity (rats; NT69L before nicotine challenge each week (group 5)): largely prevented the hyperactivity
- activity after NT69L in the sixth week (rats; five weeks nicotine without NT69L, then NT69L/nicotine in week six (group 7)): significant decrease in activity
- initiation and expression of nicotine sensitization (rats; weekly treatment for six weeks): effectively blocked
